Test results as given in paper PMC8457056, “Remodeling of the Fibrillation Pathway of α‐Synuclein by Interaction with Antimicrobial Peptide LL‐III” (Chemistry (Weinheim an Der Bergstrasse, Germany), 2021).

Tested on: α‐Syn droplets
Experiment: fluorescence microscopy, partitioning of LL-III in α-Syn droplets
Type: binding, human
Details: 100 μM α-Syn, pH 5.0, 25 °C
Description: Figure 1 A) Phase‐contrast light microscopy snapshots of 100 μM and 200 μM α‐Syn solutions collected 2, 4, 7, 9 and 16 days after incubation of the monomeric α‐Syn. B) Phase‐contrast light microscopy snapshots of a solution of 100 μM α‐Syn in the presence of the reported concentration of antimicrobial peptide LL‐III. Each sample was prepared by mixing the monomeric form of α‐Syn with LL‐III. The pictures were taken after 9 and 16 days of incubation. For the snapshots after 16 days, at each peptide concentration, two different regions of the cover slip were sampled, showing the presence of discrete droplets as well as droplet clusters in solution. C) Phase‐contrast light and fluorescence microscopy snapshots of a 100 μM α‐Syn solution in the presence of 50 μM LL‐III (total peptide concentration, the concentration of the carboxyfluorescein‐labelled peptide was 1 μM). All the experiments were performed at room temperature (25 °C) in 20 mM sodium acetate buffer, pH 5.0. […]
To reveal if the short antimicrobial peptide LL‐III is able to affect the fibril formation of α‐Syn, we performed a series of microscopy experiments by using 100 μM of α‐Syn and varying the concentration of LL‐III between 50 μM and 500 μM. […] To confirm partitioning of the LL‐III peptide in the α‐Syn droplets, complementary fluorescence microscopy experiments were performed using a carboxyfluorescein‐labelled LL‐III peptide. […]

With NH2-VNWKKIL GKIIKVVK -CONH2 [LL‐III] the “partitioning in α-Syn droplets” value (50 μM LL-III of which 1 μM carboxyfluorescein-labelled, 20 mM sodium acetate, excitation 488 nm) was “most of the LL‐III peptide was localized in the α‐Syn droplets” and the “droplet clusters after 16 days” value (16 days) was “formation of LL‐III‐enriched droplet clusters were observed after 16 days”.
